Structures can show the parent of a compound that is named as a salt. Where two headings read alike, the source gives them in different places.
Columns and labels:
Type in all cases: cell-based, human
[1] = test system: HTT mRNA; assay: Splicing RT-qPCR assay, HTT canonical (CJ) and alternative (AJ) junction mRNA; conditions: Homo sapiens
In short: (§1)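 One-step RT-qPCR on cell lysates, CJ and AJ isoforms quantified; housekeeping normalization GAPDH/GUSB (K562) or PPIA (A673). Cells: A673 in DMEM/10% FBS or K562 in IMDM/10% FBS. Compounds 11-pt 3-fold, top 10 uM, 24 h, 37 °C, 5% CO2.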

[2] = test system: HTT mRNA; assay: Splicing RT-qPCR gene panel, HTT canonical junction (CJ) mRNA; conditions: Homo sapiens, Tables 4A/4B, read-out: HTT (IC50, decrease in CJ mRNA, gene panel)
In short: (§2)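 Canonical-junction mRNA levels were quantified by RT-qPCR in lysates, using ΔΔCt against a housekeeping gene (GAPDH, GUSB or PPIA) and DMSO wells, expressed as percentage response. Cells (A673 or K562) had been exposed for 24 h at 37° C. to 11 three-fold compound concentrations up to 10 uM, DMSO ≤0.25%.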

[3] = test system: Target C mRNA; assay: Splicing RT-qPCR gene panel, Target C canonical junction (CJ) mRNA; conditions: Homo sapiens, Tables 4A/4B, read-out: Target C (IC50, decrease in CJ mRNA, gene panel)
In short: as §2

[4] = test system: MYB mRNA; assay: Splicing RT-qPCR assay, MYB canonical (CJ) and alternative (AJ) junction mRNA; conditions: Homo sapiens
In short: as §1

[5] = test system: SMN2 mRNA; assay: Splicing RT-qPCR gene panel, SMN2 canonical junction (CJ) mRNA; conditions: Homo sapiens, Tables 4A/4B, read-out: SMN2 (IC50, decrease in CJ mRNA, gene panel)
In short: as §2

[6] = 24 h, A673 or K562 cells, 24 hours compound treatment, read-out: HTT CJ (IC50, decrease in canonical junction mRNA)
[7] = A673 or K562 cells, 24 hours compound treatment, read-out: HTT AJ (AC50, increase in alternative junction mRNA)
[8] = 24 h, A673 or K562 cells, 24 hours compound treatment, RT-qPCR, read-out: MYB AJ (AC50, increase in alternative junction mRNA)
[9] = 24 h, A673 or K562 cells, 24 hours compound treatment, RT-qPCR, read-out: MYB CJ (IC50, decrease in canonical junction mRNA)
[10] = Tables 4A/4B, canonical junction qPCR panel, read-out: MYB (IC50, decrease in CJ mRNA, gene panel)

Row | IC50 [1, 6] [µM] | IC50 [2] [µM] | IC50 [3] [µM] | IC50 [4, 9] [µM] | IC50 [4, 10] [µM] | IC50 [5] [µM] | IC50 ([1]; Table 3B, canonical junction mRNA, read-out: HTT CJ (IC50, decrease in CJ mRNA)) [µM] | IC50 ([4]; Table 3B, canonical junction mRNA, RT-qPCR, read-out: MYB CJ (IC50, decrease in CJ mRNA)) [µM] | SMILES | AC50 [1, 7] [µM] | AC50 [4, 8] [µM] | AC50 ([1]; Table 3B, alternative junction mRNA, read-out: HTT AJ (AC50, increase in AJ mRNA)) [µM] | AC50 ([4]; Table 3B, alternative junction mRNA, RT-qPCR, read-out: MYB AJ (AC50, increase in AJ mRNA)) [µM]
1 | > 10 | 1 to 10 | 1 to 10 | > 10 | 0.1 to 1 | 0.1 to 1 | – | – | CCn1cc2c(C3OCC(N)CO3)ccc(C(=O)Nc3cc(F)c4nc(C)cn4c3)c2n1 (centres unmarked) [Compound 455, 4-(5-amino-1,3-dioxan-2-yl)-2-ethyl-N-{8-fluoro-2-methylimidazo[1,2-a]pyridin-6-yl}indazole-7-carboxamide] | > 10 | > 10 | – | –
2 | 1 to 10 | 1 to 10 | > 10 | 0.1 to 1 | 0.1 to 1 | < 0.1 | – | – | CCn1cc2c(N3CCN[C@@H](CO)C3)ccc(C(=O)Nc3cc(F)c4nc(C)cn4c3)c2n1 [Compound 429, (R)-2-ethyl-N-(8-fluoro-2-methylimidazo[1,2-a]pyridin-6-yl)-4-(3-(hydroxymethyl)piperazin-1-yl)-2H-indazole-7-carboxamide] | 1 to 10 | 0.1 to 1 | – | –
3 | > 10 | > 10 | > 10 | > 10 | > 10 | > 10 | – | – | CNC1CCN(c2ccc(C(=O)Nc3cn4cc(C)nc4c(N(C)C)n3)c3nn(C)cc23)C1 (centres unmarked) [Compound 419, N-[8-(dimethylamino)-2-methylimidazo[1,2-a]pyrazin-6-yl]-2-methyl-4-[3-(methylamino)pyrrolidin-1-yl]indazole-7-carboxamide] | > 10 | > 10 | – | –
4 | > 10 | > 10 | > 10 | < 0.1 | < 0.1 | < 0.1 | – | – | Cc1cn2cc(NC(=O)c3ccc(N4CC5(N)CC4C5)c4cn(C)nc34)cc(F)c2n1 [Compound 383, 4-{4-amino-2-azabicyclo[2.1.1]hexan-2-yl}-N-{8-fluoro-2-methylimidazo[1,2-a]pyridin-6-yl}-2-methylindazole-7-carboxamide] | > 10 | 0.1 to 1 | – | –
5 | – | 0.1 to 1 | 1 to 10 | – | < 0.1 | < 0.1 | 0.1 to 1 | < 0.1 | Cc1cn2cc(NC(=O)c3c(F)cc(N4CC[C@@H](NC5CCC5)C4)c4csnc34)cc(F)c2n1 [Compound 976] | – | – | 1 to 10 | < 0.1
6 | > 10 | > 10 | > 10 | 0.1 to 1 | 0.1 to 1 | < 0.1 | – | – | CCn1cc2c(N3CC[C@H](NC4CC4)C3)ccc(C(=O)Nc3cc(F)c4nc(C)cn4c3)c2n1 [Compound 410, (S)-4-(3-(cyclopropylamino)pyrrolidin-1-yl)-2-ethyl-N-(8-fluoro-2-methylimidazo[1,2-a]pyridin-6-yl)-2H-indazole-7-carboxamide] | > 10 | 1 to 10 | – | –
7 | 1 to 10 | 1 to 10 | > 10 | < 0.1 | < 0.1 | < 0.1 | – | – | Cc1cn2cc(NC(=O)c3ccc(N4CC[C@@H](NC5(CF)CC5)C4)c4cn(C)nc34)cc(F)c2n1 [Compound 461, N-{8-fluoro-2-methylimidazo[1,2-a]pyridin-6-yl}-4-[(3R)-3-{[1-(fluoromethyl)cyclopropyl]amino}pyrrolidin-1-yl]-2-methylindazole-7-carboxamide] | > 10 | 0.1 to 1 | – | –
8 | < 0.1 | 0.1 to 1 | 0.1 to 1 | < 0.1 | < 0.1 | < 0.1 | – | – | CCNC1CCN(c2cc(F)c(C(=O)Nc3cc(F)c4nc(C)cn4c3)c3nn(C)cc23)CC1 [Compound 460] | 0.1 to 1 | < 0.1 | – | –
9 | > 10 | > 10 | > 10 | 0.1 to 1 | 0.1 to 1 | < 0.1 | – | – | CCn1cc2c(N3CC[C@H](N(C)C)C3)ccc(C(=O)Nc3cc(F)c4nc(C)cn4c3)c2n1 [Compound 408, (S)-4-(3-(dimethylamino)pyrrolidin-1-yl)-2-ethyl-N-(8-fluoro-2-methylimidazo[1,2-a]pyridin-6-yl)-2H-indazole-7-carboxamide] | > 10 | 0.1 to 1 | – | –

More lines, now with the values behind:

Row | SMILES | IC50 [1, 6] [µM] | IC50 [2] [µM] | IC50 [3] [µM] | IC50 [4, 9] [µM] | IC50 [4, 10] [µM] | IC50 [5] [µM] | IC50 ([1]; Table 3B, canonical junction mRNA, read-out: HTT CJ (IC50, decrease in CJ mRNA)) [µM] | IC50 ([4]; Table 3B, canonical junction mRNA, RT-qPCR, read-out: MYB CJ (IC50, decrease in CJ mRNA)) [µM] | AC50 [1, 7] [µM] | AC50 [4, 8] [µM] | AC50 ([1]; Table 3B, alternative junction mRNA, read-out: HTT AJ (AC50, increase in AJ mRNA)) [µM] | AC50 ([4]; Table 3B, alternative junction mRNA, RT-qPCR, read-out: MYB AJ (AC50, increase in AJ mRNA)) [µM]
10 | Cc1cn2cc(NC(=O)c3ccc(N4CCNCC4)c4cn(CC5CCO5)nc34)cc(F)c2n1 (centres unmarked) [Compound 338, N-{8-fluoro-2-methylimidazo[1,2-a]pyridin-6-yl}-2-(oxetan-2-ylmethyl)-4-(piperazin-1-yl)indazole-7-carboxamide] | 1 to 10 | 1 to 10 | > 10 | 0.1 to 1 | 0.1 to 1 | < 0.1 | – | – | 1 to 10 | 0.1 to 1 | – | –
11 | Cc1c(O)c(NC(=O)c2ccc(N3CCNCC3)c3cn(C)nc23)cc2cn(C)nc12 [Compound 325, N-(6-hydroxy-2,7-dimethylindazol-5-yl)-2-methyl-4-(piperazin-1-yl) indazole-7-carboxamide hydrochloride] | > 10 | > 10 | > 10 | 1 to 10 | 1 to 10 | < 0.1 | – | – | > 10 | 1 to 10 | – | –
12 | Cc1cn2cc(NC(=O)c3ccc(C4CCN(C)CC4)c4cc(C)oc34)cc(F)c2n1 [Compound 256] | 1 to 10 | 1 to 10 | > 10 | 0.1 to 1 | 0.1 to 1 | < 0.1 | – | – | 1 to 10 | 0.1 to 1 | – | –
13 | Cn1cc2ccc(NC(=O)c3ccc(N4CCNCC4)c4cn(C)nc34)cc2n1 [Compound 230] | > 10 | > 10 | > 10 | > 10 | > 10 | > 10 | – | – | > 10 | > 10 | – | –
14 | CCCCn1cc2c(N3CCNCC3)ccc(C(=O)Nc3cc(F)c4nc(C)cn4c3)c2n1 [Compound 312, 2-butyl-N-{8-fluoro-2-methylimidazo[1,2-a]pyridin-6-yl}-4-(piperazin-1-yl)indazole-7-carboxamide] | 1 to 10 | 1 to 10 | 1 to 10 | 0.1 to 1 | 0.1 to 1 | < 0.1 | – | – | 1 to 10 | < 0.1 | – | –
15 | CNC1CCN(c2ccc(C(=O)Nc3cc(F)c4nc(C)cn4c3)c3nn(C)cc23)C1 (centres unmarked) [Compound 298, N-{8-fluoro-2-methylimidazo[1,2-a]pyridin-6-yl}-2-methyl-4-[3-(methylamino)pyrrolidin-1-yl]indazole-7-carboxamide trifluoroacetic acid salt] | 1 to 10 | 1 to 10 | 1 to 10 | < 0.1 | < 0.1 | < 0.1 | – | – | 1 to 10 | 0.1 to 1 | – | –
16 | Cc1cn2cc(NC(=O)c3ccc(N4CC[C@@H](NC5CC5)C4)c4cn(C)nc34)cc(F)c2n1 [Compound 371, 4-[(3R)-3-(cyclopropylamino)pyrrolidin-1-yl]-N-{8-fluoro-2-methylimidazo[1,2-a]pyridin-6-yl}-2-methylindazole-7-carboxamide] | 0.1 to 1 | > 10 | > 10 | < 0.1 | < 0.1 | < 0.1 | – | – | 0.1 to 1 | < 0.1 | – | –
17 | Cc1cn2cc(NC(=O)c3ccc(N4CC[C@H](N(C)C)C4)c4cn(C)nc34)cc(F)c2n1 (single isomer, unassigned) [Compound 351, 4-[3-(dimethylamino)pyrrolidin-1-yl]-N-{8-fluoro-2-methylimidazo[1,2-a]pyridin-6-yl}-2-methylindazole-7-carboxamide] | 1 to 10 | 1 to 10 | > 10 | < 0.1 | < 0.1 | < 0.1 | – | – | 1 to 10 | < 0.1 | – | –
18 | Cc1cn2cc(NC(=O)c3ccc(N4CCC(N(C)C)C4)c4cn(C)nc34)cc(Cl)c2n1 (centres unmarked) [Compound 278] | 1 to 10 | 1 to 10 | 1 to 10 | 0.1 to 1 | 0.1 to 1 | < 0.1 | – | – | 1 to 10 | < 0.1 | – | –
19 | Cc1cn2cc(NC(=O)c3ccc(N4CCNCC4)c4cn(C5CC5)nc34)cc(F)c2n1 [Compound 294, 2-cyclopropyl-N-{8-fluoro-2-methylimidazo[1,2-a]pyridin-6-yl}-4-(piperazin-1-yl) indazole-7-carboxamide] | 0.1 to 1 | 0.1 to 1 | > 10 | < 0.1 | < 0.1 | < 0.1 | – | – | 1 to 10 | < 0.1 | – | –
